IC50 data for 67 compounds are collected here from PubChem BioAssay AID1417 (Emory University Molecular Libraries Screening Center, 2008).

Induced myeloid leukemia cell differentiation protein Mcl-1 (Homo sapiens), sequence (Q07820 whole entry, looked up): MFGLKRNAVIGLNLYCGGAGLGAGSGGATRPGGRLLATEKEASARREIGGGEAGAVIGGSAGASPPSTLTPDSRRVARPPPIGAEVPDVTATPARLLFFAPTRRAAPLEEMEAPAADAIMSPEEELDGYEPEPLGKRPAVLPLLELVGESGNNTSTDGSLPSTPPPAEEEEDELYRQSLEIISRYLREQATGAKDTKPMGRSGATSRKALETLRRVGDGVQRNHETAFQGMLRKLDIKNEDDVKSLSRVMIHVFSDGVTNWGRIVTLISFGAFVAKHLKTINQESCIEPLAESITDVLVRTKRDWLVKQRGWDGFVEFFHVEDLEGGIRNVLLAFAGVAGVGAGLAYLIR

This assay addresses Induced myeloid leukemia cell differentiation protein Mcl-1 (Homo sapiens) (UniProt Q07820). The assay is described as follows: Mcl-1 Noxa peptide disruption concentration-response – biochemical, TR-FRET, dose response (AID 1417). The following applies: Mcl-1/Noxa peptide interaction, cell-free TR-FRET (terbium/rhodamine), 2 h; measured here: absolute IC50. (TR-FRET usually uses a lanthanide donor and a delayed reading to cut background.)
For the compound `COc1ccc(/C=C2/SC(=S)N(c3ccc(S(=O)(=O)Nc4nccs4)cc3)C2=O)cc1`, the IC50 is 999 nM.

`O=C1Oc2ccccc2C(=O)/C1=C/c1ccccc1O` registered an IC50 of 3620 nM.

For the compound `CCN1c2ccccc2N(C)C1(C)c1ccccc1` (configuration not stated), the IC50 worked out at 5110 nM.

As to `CCC(C)N1C(=O)/C(=C/c2ccc3c(c2)CCN3CCCCl)C(=O)NC1=S` (configuration not stated), the IC50 turned out to be 1920 nM.

The compound `CC(C(=O)Nc1cc([N+](=O)[O-])ccc1Cl)N1CCN(c2ccc(O)cc2)CC1` (configuration not stated) had an IC50 above 54000 nM.

Regarding `CC1CC(=O)c2c(cc3c(-c4c(O)cc(O)c5c(O)c6c(cc45)OC(C)CC6=O)c(O)cc(O)c3c2O)O1` (configuration not stated), the IC50 is below 400 nM.

On to `CCN1C(=O)/C(=C2/Sc3ccc(OC)cc3N2C)SC1=Nc1cccc(O)c1`, for which the IC50 was above 54000 nM.

With `O=C(COC(=O)Cn1cnc2ccccc21)Nc1ccc2c(c1)C(=O)c1ccccc1C2=O`, the IC50 was 2590 nM.

In turn, `O=C1/C(=C/c2ccc(O)c(O)c2)Oc2cc(O)ccc21` registered an IC50 of 1160 nM.

`Cc1[nH]n(-c2ccc(Br)cc2)c(=O)c1C=Nc1ccc(S(=O)(=O)Nc2nccs2)cc1` had an IC50 of 8080 nM.

`Fc1cc(F)c2nc(Nc3nc4cc5c(cc4s3)OCO5)sc2c1` yielded an IC50 below 400 nM.

Take `Nc1c(C(=O)NC2CC2)sc2nc3c(c(-c4ccco4)c12)CC/C3=C/c1ccco1`: the 50% inhibitory concentration (IC50) is below 400 nM.

Take `C/C(=N\Nc1ccc(C(=O)O)cc1)c1ccc2c(c1)Nc1ccccc1S2`: the IC50 was below 400 nM.

In the case of `Cc1cccc(NC(=O)CSc2nnc(-c3ccco3)c(-c3ccco3)n2)c1C`, the IC50 worked out at 6470 nM.

Compound `Nc1ccc(N)c(C(=O)O)c1` registered an IC50 of 1310 nM.

As to `CN(C)c1ccc(NS(=O)(=O)c2cccc(Cl)c2)cc1`, the concentration for half-maximal inhibition (IC50) was above 54000 nM.

`COc1ccc(NC(=O)c2cc3cccc(OC)c3oc2=Nc2ccc(C(=O)O)cc2)cc1OC` returned an IC50 of 2380 nM.

Compound `O=c1cc(-c2ccccc2Cl)oc2c(NS(=O)(=O)c3cc(Cl)cc(Cl)c3O)ccc(O)c12` gave an IC50 of 2410 nM.

Compound `O=C(N/N=C/c1ccncc1)c1cc([N+](=O)[O-])cc([N+](=O)[O-])c1O` displayed an IC50 of 2490 nM.

Compound `O=c1c2ccccc2sn1-c1cc(S(=O)(=O)N2CCOCC2)ccc1N1CCOCC1` showed an IC50 below 400 nM.

Regarding `O=C(c1ccccc1)c1ccc2nc(-c3ccco3)c(-c3ccco3)nc2c1`, the IC50 came to 4340 nM.

With `O=c1cc(-c2ccc(O)c(-c3c(O)cc(O)c4c(=O)cc(-c5ccc(O)cc5)oc34)c2)oc2cc(O)cc(O)c12`, the IC50 came to 1780 nM.

Take `CCN(CC)c1ccc(NC(=O)Nc2ccc(C(C)=O)cc2)cc1`: the IC50 was above 54000 nM.

Regarding `N=C1S/C(=C\c2ccco2)C(=O)N1c1ccc2c(c1)OCO2`, the IC50 was found to be 8850 nM.

On to `COc1cc(/C=N\Nc2nc(-c3ccc(C)cc3)c(NC(C)=O)s2)ccc1O`, for which the IC50 was above 54000 nM.

As for `CC(C)C(C(=O)O)N1C(=O)/C(=C/C=C/c2ccco2)SC1=S` (configuration not stated), the IC50 is below 400 nM.

`O=C(Cn1c(=O)n(-c2ccccc2)c(=O)c2sccc21)N1CCCC1` displayed an IC50 above 54000 nM.

`CC(C)OC(=O)Cn1cnc2ccc(Br)cc2c1=O` displayed a half-inhibitory concentration (IC50) above 54000 nM.

`N/C(=N\N=C/c1ccc(-c2ccc(O)c(C(=O)O)c2)o1)N[N+](=O)[O-]` yielded an IC50 of 2650 nM.

Turning to `O=C1NC(=O)N(Cc2ccc(F)cc2)C(=O)/C1=C\c1ccc([N+](=O)[O-])s1`, the IC50 came out at 7450 nM.

`C=CCn1c(C)cc(C(=O)Cn2ncc(Cl)c(Cl)c2=O)c1C` gave an IC50 of 3070 nM.

`Cc1sc(NC(=O)c2sc3nc4c(C)cccc4cc3c2N)c(C#N)c1C`: the IC50 is below 400 nM.

In the case of `Cc1nc2ccc(NC(=O)c3cc([N+](=O)[O-])cc([N+](=O)[O-])c3Cl)cc2s1`, the IC50 was determined as 1300 nM.

In the case of `COc1cccc(C(=O)Nc2ccc3c(c2)C(=O)c2ccccc2C3=O)c1`, the IC50 stood at 2120 nM.

`CN(C)c1ccc(Sc2nnc(NC(=O)Nc3ccc(Cl)cc3Cl)s2)cc1` showed an IC50 of 3460 nM.

`CS(=O)(=O)c1ccc2c(c1)sc1nc(=O)c(/C=C3/C=CC(=O)C(O)=C3)c(N)n12`: the IC50 is below 400 nM.

As for `Cc1nn(Cc2ccc(F)cc2)c2sc(C(=O)Nc3ccc(N4CCOCC4)cc3N3CCOCC3)cc12`, the IC50 is above 54000 nM.

On to `CC1(c2ccccc2)CC(C)(C)N2C(=O)/C(=C3\SC(=S)NC3=O)c3cccc1c32` (configuration not stated), for which the IC50 was below 400 nM.

`CCOC(=O)c1sc(NC(=O)Nc2ccc(Cl)cc2)cc1C` yielded an IC50 of 4110 nM.

Consider `COc1cc(/C=N/NC(=O)c2ccc([N+](=O)[O-])cc2Cl)cc(Br)c1O`, for which the IC50 was above 54000 nM.

Turning to `Cc1nnc(NC(=O)COc2ccc3c(C)cc(=O)oc3c2)s1`, the 50% inhibitory concentration (IC50) was found to be 5880 nM.

The compound `CCOc1ccc(C(=O)Nc2cc(NC(=O)c3ccc(OCC)c(Cl)c3)cc(C(=O)O)c2)cc1Cl` displayed an IC50 of 16500 nM.

In the case of `CCN(CC)c1ccc(NC2=C(Cl)C(=O)c3ccccc3C2=O)cc1`, the IC50 is below 400 nM.

Compound `O=[N+]([O-])c1cc([N+](=O)[O-])c2cccnc2c1Oc1ccccc1O` had an IC50 of 1270 nM.

Compound `CCOC(=O)c1c(-c2ccc(C)cc2)csc1NC(=O)/C(C#N)=C/c1ccc(O)c(OC)c1` came in with an IC50 below 400 nM.

In turn, `O=C(Nc1ccc(N2CCCC2)cc1)c1ccc(Br)o1` displayed an IC50 of 1060 nM.

`Cn1cnnc1SCC(=O)Nc1sc2c(c1C(N)=O)CCC2` gave an IC50 of 1810 nM.

In the case of `Cc1nn(CC(=O)Nc2ccc(N(C)C)cc2)c(C)c1[N+](=O)[O-]`, the IC50 is above 54000 nM.

As to `Oc1c(Cl)cc(Cl)cc1/C=C/c1ccc2cccc(O)c2n1`, the IC50 was above 54000 nM.

Consider `Cc1ccc(N=C2NC(=O)S/C2=C\c2ccco2)cc1`, for which the IC50 turned out to be 8570 nM.

As for `COc1ccc2[nH]c3c(C)c4ccncc4c(C)c3c2c1`, the half-maximal inhibitory concentration (IC50) was below 400 nM.

Take `CC(=O)Nc1ccc(C(=O)Nc2cccc(-c3cnc4ccccc4n3)c2)cc1`: the IC50 is above 54000 nM.

`COc1ccccc1C1=Nc2cccc3cccc(c23)N1` returned a half-maximal inhibitory concentration (IC50) above 54000 nM.

Regarding `Cc1ccc(N2C(=O)NC(=O)/C(=C/c3cnc(-c4ccccc4)nc3)C2=O)cc1C`, the IC50 was 16300 nM.

Compound `NC1=NC(=O)/C(=C/c2cn(CCC(=O)O)nc2-c2ccc(Cl)cc2)S1` showed an IC50 of 5910 nM.

The compound `CCOC(=O)c1c(C)oc2c1c(CN1CCN(CCO)CC1)c(O)c1ccccc12` gave an IC50 below 400 nM.

Take `O=c1nc2s/c(=C\c3ccc(-c4ccccc4[N+](=O)[O-])o3)c(=O)n2nc1-c1ccccc1`: the IC50 is below 400 nM.

`CN1C(=O)/C(=C2\SC(=S)N(CCCCCC(=O)O)C2=O)c2ccccc21` showed an IC50 of 2850 nM.

In turn, `CN(C)c1ccc(C(CNC(=O)c2ccc(C#N)cc2)c2c[nH]c3ccccc23)cc1` (configuration not stated) gave an IC50 above 54000 nM.

Consider `CCCCn1c(-c2ccc(Cl)cc2)nc2c(=O)n(C)c(=O)[nH]c21`, for which the IC50 is above 54000 nM.

Compound `O=C(O)c1ccc(NC2=C/C(=N/S(=O)(=O)c3ccccc3)c3ccccc3C2=O)cc1` yielded a half-inhibitory concentration (IC50) below 400 nM.

Regarding `COc1cc(/C=C2/C(=O)c3cccc([N+](=O)[O-])c3C2=O)c(Br)cc1O`, the IC50 is below 400 nM.

As to `COc1cc(C(Nc2ccccn2)c2ccc3ccc(C)nc3c2O)cc(OC)c1O` (configuration not stated), the IC50 was below 400 nM.

Compound `O=C(O)CSc1cc(NS(=O)(=O)c2cccc([N+](=O)[O-])c2)c2ccccc2c1O` had an IC50 below 400 nM.

As to `Cc1nc(N)sc1-c1csc(Nc2ncccn2)n1`, the IC50 was found to be 3980 nM.

In the case of `Cc1ccccc1C(=O)Nc1nc(-c2cccnc2)cs1`, the IC50 is below 400 nM.

Compound `CC(/C=C/c1ccco1)=N\NC(=O)c1cc(C)[nH]n1` came in with an IC50 of 5640 nM.

Broadly, the IC50 is the point on the concentration scale where inhibition reaches its midpoint. A higher IC50 goes with weaker potency.
